Test results from article PMC11883425, “The synthesis and investigation of novel 3-benzoylbenzofurans and pyrazole derivatives for anti-HIV activity” (RSC Medicinal Chemistry, 2025).
Like-named read-outs stand apart in the source and are kept apart here.

Columns and labels:
[1] = Cytotoxicity in TZM-bl cells by MTT assay; assay type: cell-based; settings: human, MTT assay, 48 hours, mean ± SEM
Method: All cell culture reagents and cell growth medium were purchased from Sigma-Aldrich/Merck. The cell lines are TZM-bl cells (HeLa cells derived cell that is genetically engineered to contain CD4 and CCR5/CXCR4 receptor) were obtained from NIH AIDS Reagent Program and HEK 293T (derived from human embryonic kidney cells) were received as donations from the lab of Dr Patience Mthunzi, Biophotonics laboratory, CSIR. […] The cells were cultured in T-75 culture flasks (Lasec SA (Pty) Ltd Johannesburg) in Dulbecco's modified Eagle's medium (DMEM) with 3.7 g L^−1 […], 0.05% (v/v) gentamicin/mL, 1% penicillin/streptomycin and 10% heat-inactivated fetal bovine serum (Celtic Molecular Diagnostics). All incubations for tissue cell culture were conducted in a 37 °C, 5% CO2, and 95% humidity incubator.
(§1) The cytotoxicity of compounds was evaluated in TZM-bl cells since these cells are susceptible to HIV infections and would be used for the evaluation of HIV entry inhibition by 3-benzoylbenzofurans and pyrazole derivatives.[74] MTT dye (3-(4,5-dimethylthiazol-2-yl)-2,5-diphenyltetrazolium bromide), which is reduced by viable cells to produce […] purple formazan, was then measured and correlated with cell viability.[75] TZM-bl cells were cultured to confluency in DMEM containing 10% FBS and harvested by centrifugation at 1200 × g for 5 minutes. The cells were counted at 1 × 10^5 cells per mL per well and were seeded overnight, followed by treatment with serially diluted compounds from 500 to 0.98 μM for 48 hours. The peripheral blood mononuclear cells (PBMCs) were isolated from the blood of HIV-negative volunteers, treated with phytohaemagglutinin-protein (PHA, 4 μg mL^−1) to stimulate the cells for 2 hours. PBMCs were diluted in RPMI-1640 medium, counted and 1 × 10^6 cells per mL were treated with compounds (500 to 0.98 μM) for 48 hours. Cells were harvested by centrifugation at 1200 × g for 5 minutes, and the supernatants were removed. For the PBMCs, MTS dye (3-(4,5-dimethylthiazol-2-yl)-5-(3-carboxymethoxyphenylo)-2-(4-sulfophenyl)-2H-tetrazolium) was used.[76] A 100 μL of tetrazolium dye (5 mg mL^−1 MTT prepared in DMEM or 1 : 9 dilution MTS prepared in RPMI-1640) was added to the wells and incubated for 4 to 24 hours. MTT samples were solubilized with 100 μL solubilization buffer (1 mL HCl: 9 mL isopropanol) for 30 minutes, and the absorbance reading was taken at 550 nm and 690 nm wavelengths. MTS sample readings were taken at 490 nm without a solubilization step using the SpectraMax^R Paradigm^R Multi-Mode Detection Platform plate reader (Molecular Devices, California, USA).

HIV-1 Q23 pseudovirus = experiment: HIV-1 whole virus inhibition assay, Q23 pseudovirus (luciferase, TZM-bl cells); assay type: cell-based
Method: (§2) The HIV pseudoviruses were produced from the plasmids that were kindly donated by Dr Mthunzi-Kufa (CSIR, South Africa). Competent DH5α cells and STBL2 cells were transformed with envelope (CAP210.2.00.E8 and Q23.17) and backbone plasmid (HIV-1 SG3 ΔEnv) through heat-shock at 42 °C for 90 seconds and cooled in ice for 5 minutes. The transformed cells were grown in Luria Bertani medium containing 100 μg mL^−1 ampicillin and glycerol stocks were prepared. The transformed cells were grown at 37 °C in a 200 rpm shaking incubator overnight and the plasmids were isolated from the cells using a GeneJET plasmid Miniprep Kit (ThermoFisher Scientific Inc). The purity of the isolated plasmids was assessed for purity using Nanodrop. The HEK 293T cells were co-transfected with the backbone (10 μg) and envelope plasmids (5 μg) using the PolyFect Transfection Reagent (QIAGEN N.V) for 8–12 hours and the transfected cells were grown for 48 hours producing pseudoviruses which were collected, and stocks stored at −80 °C.
(§3) The compounds were serial diluted from 100 to1.56 μM in 96 well plates (Separation Scientific SA (Pty) Ltd) and incubated with either CAP210 or Q23 pseudoviruses (200 TCID50) and incubated for 1 hour. The TZM-bl cells (1 × 10^5 cells per mL containing 7.5 μg mL^−1 DEAE-dextran) were added and incubated for 48 hours. The 96 well plates were centrifuged, and the supernatant was removed leaving only 50 μL in each well. The Bright-Glo™ Luciferase substrate (Anatech Instruments (Pty) Ltd) (50 μL) was added to each well and incubated for 2 minutes in the dark and chemiluminescence readings were taken in a Corning® 96-well white polystyrene plate using a SpectraMax® Paradigm® Multi-Mode Microplate Reader.

HIV-1 CAP210 pseudovirus = experiment: HIV-1 whole virus inhibition assay, CAP210 pseudovirus (luciferase, TZM-bl cells); assay type: cell-based
Method: as §2, §3

CAP210 pseudovirus = experiment: Time of drug addition assay, CAP210 pseudovirus in TZM-bl cells; assay type: cell-based, HIV-1; settings: added 0, 2, 4, 6, 8 hours post-infection
Method: Fig. 5 Time of addition assay of CAP210 HIV infection treated with active compounds. TZM-bl cells were infected with CAP210 pseudoviruses and treated with compounds at various hours post-infection. NVP, 3g, and 4b were used at 3 μM, while 5f and 5h were used at 25 μM. The bars represent the mean ± SEM obtained from three independent experiments.
TZM-bl cells (1 × 10^5 cells per mL containing 7.5 μg mL^−1 DEAE-dextran) were infected with CAP210 pseudovirus at 400 TCID50 and incubated at 37 °C for 48 hours. The compounds were added to the wells at various time points (0, 2, 4, 6, and 8 hours) post-infection. […] After 48 hours, the cells were centrifuged at 1200 × g for 5 minutes, culture media was removed, leaving 50 μL, and Bright-Glo substrate (50 μL) was added to detect luciferase activity for 2 minutes at 37 °C. Inhibition of HIV pseudoviruses by active compounds was detected by reading for chemiluminescence using a Corning® 96-well white polystyrene using the SpectraMax® Paradigm® Multi-Mode Microplate Reader.

HIV-1 PR = target: T1, HIV-1 PR (Human immunodeficiency virus type 1 group M subtype B, UniProt P04585); experiment: HIV-1 protease inhibition assay (fluorogenic substrate); assay type: biochemical; settings: for SI (HIV-1 PR): CC50 PBMCs / IC50 HIV-1 PR
T1 construct: 2 μL recombinant HIV-PR (0.2 μg mL^−1) was added only to reaction wells
Method: Compounds were serially diluted in protease assay buffer (0.1 M CH3COONa, 1 M NaCl, 1 mM EDTA, 1 mM DTT, and 1 mg mL^−1 BSA; pH 4.7), making a final concentration of 75 to 9.4 μM, and 49 μL of compounds were added to wells. 49 μL protease substrate 1 (10 μM) was added to each well, and 2 μL recombinant HIV-PR (0.2 μg mL^−1) was added only to reaction wells except for reaction blanks, where it was replaced with 2 μL assay buffer. The solutions were mixed and incubated at 37 °C for 1 hour. Endpoint fluorescence readings at an excitation wavelength of 370 nm and an emission wavelength of 520 nm.

[2] = Cytotoxicity in PBMCs by MTS assay; assay type: cell-based; settings: human, peripheral blood mononuclear cells (PBMCs), PHA-stimulated, HIV-negative PBMCs
Method: as §1

[3] = TZM-bl, 48 h, read-out: IC50 (μM) Q23, Q23 pseudovirus, TZM-bl cells, 48 hours
[4] = TZM-bl, 48 h, read-out: IC50 (μM) CAP210, CAP210 pseudovirus, TZM-bl cells, 48 hours
[5] = lowest concentrations tested, Fig. 3

SMILES | CC50 at 48 h [1] [µM] | IC50 (HIV-1 Q23 pseudovirus; [3]) [µM] | IC50 (HIV-1 CAP210 pseudovirus; [4]) [µM] | also measured
COc1cc(F)ccc1C(=O)c1coc2ccc(O)cc12 [3f, (4-fluoro-2-methoxyphenyl)(5-hydroxy-1-benzofuran-3-yl)methanone] | 41.9 ± 6.33 | 40.6 ± 7.85 | 11.2 ± 0.31 | –
COc1ccc(C(=O)c2coc3ccc(O)cc23)c(OC)c1OC [3g, (5-Hydroxybenzofuran-3-yl)(2,3,4-trimethoxyphenyl)methanone] | 79.9 ± 7.25 | – | – | inhibition of HIV infection by time of addition (CAP210 pseudovirus; 3 μM): inhibit HIV infections for up to 8 hours; IC50 (HIV-1 PR): 70.9 ± 12.4 µM; SI (HIV-1 PR) (HIV-1 PR): 1.3; CC50 at 48 h [2]: 89.5 ± 11.6 µM
COc1ccc(OC)c(C(=O)c2coc3ccc(O)cc23)c1 [3h, (5-Hydroxybenzofuran-3-yl)(2,5-dimethoxyphenyl)methanone] | 50 ± 10.5 | 5.74 ± 1.51 | 4.45 ± 0.82 | –
COc1ccc(OC)c(C(=O)c2coc3cc(C)c(OC)c(C)c23)c1 [4a, (2,5-Dimethoxyphenyl)(5-methoxy-4,6-dimethyl-1-benzofuran-3-yl)methanone] | 59.1 ± 6.56 | 18.1 ± 1.78 | 8.12 ± 2.56 | –
COc1ccc(OC)c(C(=O)c2coc3c(C)cc(OC)c(C)c23)c1 [4b, (2,5-Dimethoxyphenyl)(5-methoxy-4,7-dimethyl-1-benzofuran-3-yl)methanone] | 8.42 ± 1.16 | – | – | inhibition of HIV infection by time of addition (CAP210 pseudovirus; 3 μM): inhibit HIV infections for up to 8 hours; IC50 (HIV-1 PR): 57.5 ± 10.1 µM; SI (HIV-1 PR) (HIV-1 PR): 0.7; CC50 at 48 h [2]: 41.3 ± 6.78 µM
COc1ccc(OC)c(C(=O)c2coc3c2cc(OC)c2ccccc23)c1 [4c, (2,5-Dimethoxyphenyl)(5-methoxynaphtho[1,2-b]furan-3-yl)methanone] | 9.65 ± 2.37 | 12.6 ± 0.53 | 2.43 ± 1.28 | –
COc1ccc(Br)cc1C(=O)c1coc2c1cc(OC)c1ccccc12 [4d, (5-Bromo-2-methoxyphenyl)(5-methoxynaphtho[1,2-b]furan-3-yl)methanone] | 7.77 ± 1.54 | 22.4 ± 3.47 | 3.28 ± 1.48 | –
COc1cc(F)ccc1C(=O)c1coc2c1cc(OC)c1ccccc12 [4e, (4-Fluoro-2-methoxyphenyl)(5-methoxynaphtho[1,2-b]furan-3-yl)methanone] | 35.2 ± 2.32 | 20.9 ± 2.2 | 4.27 ± 0.19 | –
COc1ccc(OC)c(-c2n[nH]cc2-c2c(C)c(OC)cc(C)c2O)c1 [5b, 2-[3-(2,5-Dimethoxyphenyl)-1H-pyrazol-4-yl]-4-methoxy-3,6-dimethylphenol] | 46.5 ± 6.66 | 10.1 ± 1.66 | 7.87 ± 0.91 | –
COc1ccc(OC)c(-c2n[nH]cc2-c2cc(OC)c3ccccc3c2O)c1 [5c, 2-[3-(2,5-Dimethoxyphenyl)-1H-pyrazol-4-yl]-4-methoxynaphthalen-1-ol] | 47.7 ± 17.7 | 13 ± 3.75 | 20.5 ± 6.8 | –
COc1ccc(Br)cc1-c1n[nH]cc1-c1cc(OC)c2ccccc2c1O [5d, 2-[3-(5-Bromo-2-methoxyphenyl)-1H-pyrazol-4-yl]-4-methoxynaphthalen-1-ol] | 75 ± 6.4 | 16.2 ± 2.55 | 20.8 ± 1 | –
COc1cc(F)ccc1-c1n[nH]cc1-c1cc(OC)c2ccccc2c1O [5e, 2-[3-(4-Fluoro-2-methoxyphenyl)-1H-pyrazol-4-yl]-4-methoxynaphthalen-1-ol] | 103 ± 11.1 | 15.7 ± 8.17 | 29.09 ± 0.18 | –
COc1cc(F)ccc1-c1n[nH]cc1-c1cc(O)ccc1O [5f, 2-[3-(4-Fluoro-2-methoxyphenyl)-1H-pyrazol-4-yl]benzene-1,4-diol] | 36.1 ± 7.95 | – | – | anti-HIV activity (Q23) (HIV-1 Q23 pseudovirus; [5]): over 90%; anti-HIV activity (CAP210) (HIV-1 CAP210 pseudovirus; [5]): over 90%; inhibition of HIV infection by time of addition (CAP210 pseudovirus; 25 μM): only inhibited HIV infections when added on the onset of infection; IC50 (HIV-1 PR): 31.6 ± 3.83 µM; SI (HIV-1 PR) (HIV-1 PR): 3.1; CC50 at 48 h [2]: 98.2 ± 1.3 µM
COc1ccc(-c2n[nH]cc2-c2cc(O)ccc2O)c(OC)c1OC [5g, 2-[3-(2,3,4-Trimethoxyphenyl)-1H-pyrazol-4-yl]benzene-1,4-diol] | 140 ± 17.1 | < 10 | 13.8 ± 1.7 | IC50 (HIV-1 Q23 pseudovirus; {}): 9.93 ± 0.69 µM
COc1ccc(OC)c(-c2n[nH]cc2-c2cc(O)ccc2O)c1 [5h, 2-[3-(2,5-Dimethoxyphenyl)-1H-pyrazol-4-yl]benzene-1,4-diol] | 142 ± 13.2 | < 10 | < 10 | IC50 (HIV-1 Q23 pseudovirus; {}): 8.14 ± 2.63 µM; IC50 (HIV-1 CAP210 pseudovirus; {}): 6.31 ± 0.31 µM; inhibition of HIV infection by time of addition (CAP210 pseudovirus; 25 μM): only inhibited HIV infections when added on the onset of infection; IC50 (HIV-1 PR): 50.7 ± 0.78 µM; SI (HIV-1 PR) (HIV-1 PR): 1.6; CC50 at 48 h [2]: 83.2 ± 9.7 µM
